In ChEMBL document CHEMBL1158870, “Antitumor agents. 180. Chemical Studies and cytotoxic evaluation of cumingianosides and cumindysoside A, antileukemic triterpene glucosides with a 14,18-cycloapotirucallane skeleton” (1997) one finds TGI data, which are given here for three molecules.

What all share (format): functional
The subject of assay [1] is HCC 2998. As to the kind of experiment: Cytotoxicity against human HCC2998 cells by SRB assay.
The nature of assay [2]: Cytotoxicity against human CNS cancer cells by SRB assay. The settings on record: Cancer cell lines.
The subject of assay [3] is KM12. As to the kind of experiment: Cytotoxicity against human KM12 cells by SRB assay.
The subject of assay [4] is Leukemia cell. The experiment in a line: Cytotoxicity against human Leukemia cells by SRB assay.
A short description of assay [5]: Cytotoxicity against human Colon cancer cells by SRB assay. Particulars: Cancer cell lines.
Assay [6] deals with SW-620. As to the kind of experiment: Cytotoxicity against human SW620 cells by SRB assay.
Assay [7] is described as follows: Cytotoxicity against human ovarian cancer cells by SRB assay. The settings on record: Cancer cell lines.
The test system of assay [8] is HCT-15. As to the kind of experiment: Cytotoxicity against human HCT15 cells by SRB assay.
Assay [9] in a line: Cytotoxicity against human melanoma cells by SRB assay. Particulars: Melanoma cell.
Assay [10] has as its system HT-29. The experiment in a line: Cytotoxicity against human HT29 cells by SRB assay.
Assay [11] deals with NSCLC. As to the kind of experiment: Cytotoxicity against human NSCLC cells by SRB assay.
The nature of assay [12]: Cytotoxicity against human renal cancer cells by SRB assay. Particulars: Cancer cell lines.
Assay [13] relates to HCT-116. The experiment in a line: Cytotoxicity against human HCT116 cells by SRB assay.
Assay [14] relates to COLO 205. The experiment in a line: Cytotoxicity against human COLO205 cells by SRB assay.

On to `COC(C)(C)[C@@H](O)[C@H](O)C[C@H](C)[C@@H]1CC[C@]23C[C@]12CC[C@@H]1[C@@]2(C)CC[C@@H](OC(C)=O)C(C)(C)[C@@H]2C[C@@H](O[C@@H]2O[C@H](COC(C)=O)[C@@H](O)[C@H](O)[C@H]2O)[C@]13C` [CUMINGIANOSIDE C], for which the TGI in assay [1] was determined as 4.9 µM; in assay [2] it was 11.6 µM; in [3] it was 7.6 µM; in assay [4], 11.3 µM; in assay [5], 7.9 µM; in [6], 13.7 µM. For the same molecule, the TGI in assay [7] turned out to be 12 µM; in assay [8], 6.3 µM; in assay [9] it was 12.6 µM; in assay [10], 2.5 µM; in [11], 12.4 µM; in [12], 13.2 µM. Besides, the figures for the TGI in assay [13] and in assay [14] were 8.7 µM and 11.3 µM, respectively.

For the molecule `C=C(C)[C@@H](O)[C@H](O)C[C@H](C)[C@@H]1CC[C@]23C[C@]12CC[C@@H]1[C@@]2(C)CC[C@@H](OC(C)=O)C(C)(C)[C@@H]2C[C@@H](O[C@@H]2O[C@H](COC(C)=O)[C@@H](O)[C@H](O)[C@H]2O)[C@]13C` [CUMINGIANOSIDE D], the TGI amounted to 12.4 µM in [1]; 10.9 µM in assay [2]; 11.3 µM in assay [3]; 8.2 µM in assay [4]; 11 µM in assay [5]; 12 µM in assay [6]. Besides, the TGI came to 12.7 µM in assay [7]; 10.4 µM in assay [8]; 12.2 µM in [9]; 8.77 µM in [10]; 11.7 µM in [11]; 12.7 µM in assay [12]. For the same molecule, the TGI in assay [13] was 9.27 µM; in assay [14], 12.6 µM.

`CC(=O)OC[C@H]1O[C@@H](O[C@@H]2C[C@H]3C(C)(C)[C@H](OC(C)=O)CC[C@]3(C)[C@H]3CC[C@]45C[C@]4(CC[C@H]5[C@@H](C)C[C@@H](O)[C@@H]4OC4(C)C)[C@@]32C)[C@H](O)[C@@H](O)[C@@H]1O` [CUMINGIANOSIDE E]: the TGI in [1] amounted to 2.7 µM; in [2], 7.9 µM; in [3], 3.8 µM; in [4] it was 1.8 µM; in assay [5], 4.2 µM; in [6] it was 10 µM. For the same molecule, the concentration for total growth inhibition (TGI) in assay [7] was 5.9 µM; in assay [8], 6 µM; in [9], 15.4 µM; in assay [10] it was 1.7 µM; in [11], 14.5 µM; in assay [12], 10 µM. For the same molecule, the TGI in assay [13] was determined as 3.5 µM; in [14] it was 1.8 µM.
